Results as given in PubChem BioAssay (NCI).
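In this assay, cells in 96-well plates receive the compound at five concentrations for 48 hours. Endpoints are linearly interpolated between the surrounding concentrations. At the TGI there is no net growth.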

Columns and labels:
Assay in all cases: NCI tumour cell line growth inhibition, 48 h
786-0 renal = system: 786-0 renal
A549 NSCLC = system: A549 NSCLC
ACHN renal = system: ACHN renal
CAKI-1 renal = system: CAKI-1 renal
CCRF-CEM leukemia = system: CCRF-CEM leukemia
COLO 205 colon = system: COLO 205 colon
DLD-1 colon = system: DLD-1 colon
DMS 114 small cell lung = system: DMS 114 small cell lung
DMS 273 small cell lung = system: DMS 273 small cell lung
EKVX NSCLC = system: EKVX NSCLC
HCC-2998 colon = system: HCC-2998 colon
HCT-116 colon = system: HCT-116 colon
HCT-15 colon = system: HCT-15 colon
HL-60(TB) leukemia = system: HL-60(TB) leukemia
HOP-62 NSCLC = system: HOP-62 NSCLC
HOP-92 NSCLC = system: HOP-92 NSCLC
HT29 colon = system: HT29 colon
IGROV1 ovarian = system: IGROV1 ovarian
K-562 leukemia = system: K-562 leukemia
KM12 colon = system: KM12 colon
KM20L2 colon = system: KM20L2 colon
LOX IMVI melanoma = system: LOX IMVI melanoma
LXFL 529 NSCLC = system: LXFL 529 NSCLC
MALME-3M melanoma = system: MALME-3M melanoma
MOLT-4 leukemia = system: MOLT-4 leukemia
NCI-H226 lung = system: NCI-H226 lung
NCI-H23 lung = system: NCI-H23 lung
NCI-H460 lung = system: NCI-H460 lung
NCI-H522 lung = system: NCI-H522 lung
OVCAR-3 ovarian = system: OVCAR-3 ovarian
OVCAR-5 ovarian = system: OVCAR-5 ovarian
OVCAR-8 ovarian = system: OVCAR-8 ovarian
RPMI-8226 leukemia = system: RPMI-8226 leukemia
RXF 393 renal = system: RXF 393 renal
RXF-631 renal = system: RXF-631 renal
SF-268 CNS = system: SF-268 CNS
SF-295 CNS = system: SF-295 CNS
SF-539 CNS = system: SF-539 CNS
SK-MEL-2 melanoma = system: SK-MEL-2 melanoma
SK-MEL-28 melanoma = system: SK-MEL-28 melanoma
SK-MEL-5 melanoma = system: SK-MEL-5 melanoma
SK-OV-3 ovarian = system: SK-OV-3 ovarian
SN12C renal = system: SN12C renal
SNB-19 CNS = system: SNB-19 CNS
SR leukemia = system: SR leukemia
SW-620 colon = system: SW-620 colon
TK-10 renal = system: TK-10 renal
U251 CNS = system: U251 CNS
UACC-257 melanoma = system: UACC-257 melanoma
UACC-62 melanoma = system: UACC-62 melanoma
A498 renal = system: A498 renal
HOP-18 NSCLC = system: HOP-18 NSCLC
M19-MEL melanoma = system: M19-MEL melanoma
OVCAR-4 ovarian = system: OVCAR-4 ovarian
SNB-78 CNS = system: SNB-78 CNS
UO-31 renal = system: UO-31 renal
M14 melanoma = system: M14 melanoma
XF 498 CNS = system: XF 498 CNS
SNB-75 CNS = system: SNB-75 CNS

O=C(c1cc2ccccc2[nH]1)C(O)(c1cc2ccccc2[nH]1)c1cc2ccccc2[nH]1
TGI (786-0 renal): > 246 µM | TGI (A549 NSCLC): > 246 µM | TGI (ACHN renal): > 246 µM | TGI (CAKI-1 renal): > 246 µM | TGI (CCRF-CEM leukemia): > 246 µM | TGI (COLO 205 colon): > 246 µM | TGI (DLD-1 colon): > 246 µM | TGI (DMS 114 small cell lung): > 246 µM | TGI (DMS 273 small cell lung): > 246 µM | TGI (EKVX NSCLC): > 246 µM | TGI (HCC-2998 colon): > 246 µM | TGI (HCT-116 colon): > 246 µM | TGI (HCT-15 colon): > 246 µM | TGI (HL-60(TB) leukemia): > 246 µM | TGI (HOP-62 NSCLC): > 246 µM | TGI (HOP-92 NSCLC): > 246 µM | TGI (HT29 colon): > 246 µM | TGI (IGROV1 ovarian): > 246 µM | TGI (K-562 leukemia): > 246 µM | TGI (KM12 colon): > 246 µM | TGI (KM20L2 colon): > 246 µM | TGI (LOX IMVI melanoma): > 246 µM | TGI (LXFL 529 NSCLC): > 246 µM | TGI (MALME-3M melanoma): > 246 µM | TGI (MOLT-4 leukemia): > 246 µM | TGI (NCI-H226 lung): > 246 µM | TGI (NCI-H23 lung): > 246 µM | TGI (NCI-H460 lung): > 246 µM | TGI (NCI-H522 lung): > 246 µM | TGI (OVCAR-3 ovarian): > 246 µM | TGI (OVCAR-5 ovarian): > 246 µM | TGI (OVCAR-8 ovarian): > 246 µM | TGI (RPMI-8226 leukemia): > 246 µM | TGI (RXF 393 renal): > 246 µM | TGI (RXF-631 renal): > 246 µM | TGI (SF-268 CNS): > 246 µM | TGI (SF-295 CNS): > 246 µM | TGI (SF-539 CNS): > 246 µM | TGI (SK-MEL-2 melanoma): > 246 µM | TGI (SK-MEL-28 melanoma): > 246 µM | TGI (SK-MEL-5 melanoma): > 246 µM | TGI (SK-OV-3 ovarian): > 246 µM | TGI (SN12C renal): > 246 µM | TGI (SNB-19 CNS): > 246 µM | TGI (SR leukemia): > 246 µM | TGI (SW-620 colon): > 246 µM | TGI (TK-10 renal): > 246 µM | TGI (U251 CNS): > 246 µM | TGI (UACC-257 melanoma): > 246 µM | TGI (UACC-62 melanoma): > 246 µM

O=[N+]([O-])c1cccc(C2SCc3nc4ccccc4n32)c1 (stereo not drawn)
TGI (786-0 renal): > 100 µM | TGI (A498 renal): > 100 µM | TGI (A549 NSCLC): > 100 µM | TGI (ACHN renal): > 100 µM | TGI (CAKI-1 renal): > 100 µM | TGI (CCRF-CEM leukemia): > 100 µM | TGI (COLO 205 colon): > 100 µM | TGI (DLD-1 colon): > 100 µM | TGI (DMS 114 small cell lung): > 100 µM | TGI (DMS 273 small cell lung): > 100 µM | TGI (EKVX NSCLC): > 100 µM | TGI (HL-60(TB) leukemia): > 100 µM | TGI (HOP-18 NSCLC): > 100 µM | TGI (HOP-62 NSCLC): > 100 µM | TGI (HOP-92 NSCLC): > 100 µM | TGI (HT29 colon): > 100 µM | TGI (IGROV1 ovarian): > 100 µM | TGI (K-562 leukemia): > 100 µM | TGI (KM12 colon): > 100 µM | TGI (KM20L2 colon): > 100 µM | TGI (LOX IMVI melanoma): > 100 µM | TGI (LXFL 529 NSCLC): > 100 µM | TGI (M19-MEL melanoma): > 100 µM | TGI (MALME-3M melanoma): > 100 µM | TGI (MOLT-4 leukemia): > 100 µM | TGI (NCI-H226 lung): > 100 µM | TGI (NCI-H23 lung): > 100 µM | TGI (NCI-H460 lung): > 100 µM | TGI (OVCAR-4 ovarian): > 100 µM | TGI (OVCAR-5 ovarian): > 100 µM | TGI (OVCAR-8 ovarian): > 100 µM | TGI (RXF 393 renal): > 100 µM | TGI (SF-268 CNS): > 100 µM | TGI (SF-295 CNS): > 100 µM | TGI (SF-539 CNS): > 100 µM | TGI (SK-MEL-2 melanoma): > 100 µM | TGI (SK-MEL-28 melanoma): > 100 µM | TGI (SK-MEL-5 melanoma): 52.8 µM | TGI (SK-OV-3 ovarian): > 100 µM | TGI (SN12C renal): > 100 µM | TGI (SNB-19 CNS): > 100 µM | TGI (SNB-78 CNS): > 100 µM | TGI (SR leukemia): > 100 µM | TGI (SW-620 colon): > 100 µM | TGI (TK-10 renal): > 100 µM | TGI (U251 CNS): > 100 µM | TGI (UACC-257 melanoma): > 100 µM | TGI (UACC-62 melanoma): > 100 µM | TGI (UO-31 renal): > 100 µM

Clc1ccccc1C(n1cc(Br)cn1)n1cc(Br)cn1
TGI (A498 renal): 35.9 µM | TGI (ACHN renal): 55.2 µM | TGI (CAKI-1 renal): > 100 µM | TGI (CCRF-CEM leukemia): 93.1 µM | TGI (DLD-1 colon): 54 µM | TGI (DMS 114 small cell lung): 56 µM | TGI (DMS 273 small cell lung): 53 µM | TGI (HCT-116 colon): 42.9 µM | TGI (HL-60(TB) leukemia): 44.6 µM | TGI (HOP-62 NSCLC): 57.9 µM | TGI (HT29 colon): 29 µM | TGI (K-562 leukemia): > 100 µM | TGI (KM12 colon): 40.8 µM | TGI (LOX IMVI melanoma): 31.2 µM | TGI (LXFL 529 NSCLC): > 100 µM | TGI (M14 melanoma): 36.9 µM | TGI (M19-MEL melanoma): 34.5 µM | TGI (MALME-3M melanoma): 46.9 µM | TGI (MOLT-4 leukemia): 39.2 µM | TGI (NCI-H23 lung): > 100 µM | TGI (NCI-H460 lung): 28.1 µM | TGI (NCI-H522 lung): > 100 µM | TGI (OVCAR-4 ovarian): > 100 µM | TGI (OVCAR-5 ovarian): 49 µM | TGI (OVCAR-8 ovarian): 55.1 µM | TGI (RPMI-8226 leukemia): 46.3 µM | TGI (RXF 393 renal): 34.4 µM | TGI (SF-295 CNS): 43.1 µM | TGI (SK-MEL-2 melanoma): 45.6 µM | TGI (SK-MEL-28 melanoma): > 100 µM | TGI (SK-MEL-5 melanoma): 23.1 µM | TGI (SN12C renal): 30.6 µM | TGI (SNB-19 CNS): > 100 µM | TGI (SNB-78 CNS): > 100 µM | TGI (SR leukemia): 92.9 µM | TGI (TK-10 renal): > 100 µM | TGI (U251 CNS): > 100 µM | TGI (UACC-257 melanoma): 31.7 µM | TGI (UO-31 renal): 32.6 µM | TGI (XF 498 CNS): 40.6 µM

CCCCCCCCCCCCCCCCOC(=O)C(C(=O)OCCCCCCCCCCCCCCCC)[N+](C)(C)CCOC(C)=O
TGI (786-0 renal): 32.7 µM | TGI (A498 renal): 57.5 µM | TGI (A549 NSCLC): 42.6 µM | TGI (ACHN renal): 34.9 µM | TGI (CAKI-1 renal): 30.9 µM | TGI (CCRF-CEM leukemia): 28.6 µM | TGI (COLO 205 colon): 36 µM | TGI (DLD-1 colon): 31.3 µM | TGI (DMS 114 small cell lung): 41.8 µM | TGI (DMS 273 small cell lung): 25 µM | TGI (EKVX NSCLC): 43.7 µM | TGI (HCC-2998 colon): 30.7 µM | TGI (HCT-116 colon): 33.1 µM | TGI (HCT-15 colon): 46.1 µM | TGI (HL-60(TB) leukemia): 6.12 µM | TGI (HOP-18 NSCLC): 30.3 µM | TGI (HOP-62 NSCLC): 25.8 µM | TGI (HOP-92 NSCLC): 18.5 µM | TGI (HT29 colon): 25.9 µM | TGI (IGROV1 ovarian): 13.7 µM | TGI (K-562 leukemia): 41 µM | TGI (KM12 colon): 33.8 µM | TGI (KM20L2 colon): 50 µM | TGI (LOX IMVI melanoma): 44.8 µM | TGI (LXFL 529 NSCLC): 37.2 µM | TGI (M14 melanoma): 38.5 µM | TGI (M19-MEL melanoma): 30.4 µM | TGI (MALME-3M melanoma): 41.2 µM | TGI (NCI-H226 lung): 42.1 µM | TGI (NCI-H23 lung): 30.3 µM | TGI (NCI-H460 lung): 80.6 µM | TGI (NCI-H522 lung): 23.3 µM | TGI (OVCAR-3 ovarian): 32.6 µM | TGI (OVCAR-4 ovarian): 32.4 µM | TGI (OVCAR-5 ovarian): 35.1 µM | TGI (OVCAR-8 ovarian): 37.3 µM | TGI (RXF 393 renal): 8.98 µM | TGI (RXF-631 renal): 30.5 µM | TGI (SF-268 CNS): 44.1 µM | TGI (SF-295 CNS): 35.4 µM | TGI (SK-MEL-2 melanoma): 36.8 µM | TGI (SK-MEL-28 melanoma): 40.8 µM | TGI (SK-MEL-5 melanoma): 35.1 µM | TGI (SK-OV-3 ovarian): 34.8 µM | TGI (SN12C renal): 35.3 µM | TGI (SNB-19 CNS): 43.8 µM | TGI (SNB-75 CNS): 35.6 µM | TGI (SNB-78 CNS): 45.7 µM | TGI (SW-620 colon): 52.4 µM | TGI (TK-10 renal): 26.5 µM | TGI (U251 CNS): 27 µM | TGI (UACC-257 melanoma): 35 µM | TGI (UACC-62 melanoma): 45.7 µM | TGI (UO-31 renal): 34.2 µM
